Experimental data reported in patent publication US10966426B2, “Herbicidal compositions comprising phenylpyrimidines” (BASF SE, priority 2016, dated 2021).
Values joined by “and” are separate entries in the source; they are usually repeats but may differ in a detail not shown here. Equal entries are not always repeated.

Legend:
Assay type in all cases: in vivo
[1] = tested on: Digitaria sanguinalis; experiment: greenhouse post-emergence treatment, DIGSA; conditions: DIGSA
How it was run: (§1)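 Greenhouse test in humus-containing (~3.0%) loamy sand at species-dependent temperatures of 10-25° C. or 20-35° C.; treatments applied in water. Damage rated visually after 2–4 weeks (0 = none, 100 = complete destruction or no emergence).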

[2] = tested on: Bromus sterilis; experiment: greenhouse post-emergence treatment, BROST
How it was run: as §1

[3] = tested on: Echinocloa crus-galli; experiment: greenhouse post-emergence treatment, ECHCG; conditions: ECHCG
How it was run: (§2)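 Post-emergence greenhouse spray on 3–15 cm plants, sown direct or transplanted a few days before treatment. Scored visually on a 0–100 scale after 2 to 4 weeks; expected additive effect computed by Colby: E=X+Y−(X·Y/100).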

[4] = tested on: Matricaria chamomilla; experiment: greenhouse post-emergence treatment, MATCH; conditions: MATCH
How it was run: as §2

[5] = tested on: Papaver rhoeas; experiment: greenhouse post-emergence treatment, PAPRH; conditions: PAPRH
How it was run: as §2

[6] = tested on: Poa annua; experiment: greenhouse post-emergence treatment, POAAN; conditions: POAAN
How it was run: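 Greenhouse; post-emergence spray at 3–15 cm; aqueous EC formulation; 2–4 weeks; 0–100 visual score.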

[7] = Ex. 5 solo, 62.5 gai/ha, 21 DAT
[8] = Table X8, 20 DAT, solo Ex. 5 250 gai/ha
[9] = Ex. 5 solo, 62.5 gai/ha, 20 DAT

For `O=C(O)c1nc(C2CC2)ncc1-c1ccccc1Cl` [Ex. 5], which “% activity” value ([1]; 21 DAT, solo Ex. 5 125 gai/ha) is on record?
The value was 60%.

What about the “% activity” value ([1]; 21 DAT, solo Ex. 5 250 gai/ha) of the same molecule?
Its value is 80%.

And the “% activity” value ([1]; solo Ex. 5 62.5 gai/ha, 20 DAT)?
The value was 35%.

And the “% activity” value ([1]; solo Ex. 5 125 gai/ha, 21 DAT)?
Its value is 45%.

And the “% activity” value ([1]; solo Ex. 5 250 gai/ha, 21 DAT)?
The value was 65%.

What about the “% activity” value ([1]; solo Ex. 5 500 gai/ha, 20 DAT, 2nd series of rows) of the same molecule?
The value was 75%.

And the “% activity” value [1, 7]?
Its value is 35%.

And the “% activity” value [1, 8]?
The value was 65%.

What about the “% activity” value ([1]; solo, 62.5 gai/ha, 20 DAT) of the same molecule?
Its value is 35%.

What about the “% activity” value ([1]; solo, 125 gai/ha, 20 DAT) of the same molecule?
The value was 50%.

And the “% activity, solo application” value ([2]; 250 gai/ha, 20 DAT, BROST, Table X3)?
Its value is 80%.

And the “% activity” value ([2]; BROST, 20 DAT, solo Ex. 5 62.5 gai/ha)?
The value was 35%.

What about the “% activity” value ([2]; BROST, 20 DAT, solo Ex. 5 250 gai/ha) of the same molecule?
The value was 80%.

And the “% activity” value ([2]; BROST, solo Ex. 5 62.5 gai/ha, 20 DAT)?
The value was 30% and 53%.

And the “% activity” value ([2]; BROST, solo Ex. 5 125 gai/ha, 20 DAT)?
Its value is 65% and 73%.

And the “% activity” value ([2]; BROST, solo Ex. 5 250 gai/ha, 20 DAT)?
The value was 70% and 85%.

What about the “% activity” value ([2]; BROST, solo Ex. 5 500 gai/ha, 20 DAT) of the same molecule?
Its value is 90%.

What about the “% activity” value ([2]; solo, BROST, 125 gai/ha, 20 DAT) of the same molecule?
The value was 65%.

And the “% activity” value ([2]; solo, BROST, 250 gai/ha, 20 DAT)?
The value was 70% and 80%.

What about the “% activity, solo application” value ([3]; 62.5 gai/ha, 20 DAT, Table X3) of the same molecule?
Its value is 65%.

And the “% activity” value ([3]; solo Ex. 5 125 gai/ha, 21 DAT)?
The value was 65%.

And the “% activity” value ([3]; solo Ex. 5 250 gai/ha, 21 DAT)?
Its value is 65%.

What about the “% activity” value ([3]; Table X12, 20 DAT, solo Ex. 5 125 gai/ha) of the same molecule?
The value was 65%.

And the “% activity, solo application” value ([4]; 62.5 gai/ha, 20 DAT, Table X3)?
The value was 30%.

And the “% activity, solo application” value ([4]; 125 gai/ha, 20 DAT, Table X3)?
The value was 30%.

And the “% activity, solo application” value ([4]; 125 gai/ha, 20 DAT, Table X4)?
The value was 40%.

And the “% activity, solo application” value ([4]; 125 gai/ha, 20 DAT, Table X5)?
The value was 10%.

What about the “% activity, solo application” value ([4]; 125 gai/ha, 20 DAT, Table X7) of the same molecule?
The value was 30%.

What about the “% activity, solo application” value ([4]; 250 gai/ha, 20 DAT, Table X3) of the same molecule?
Its value is 70%.

And the “% activity, solo application” value ([4]; 250 gai/ha, 20 DAT, Table X4)?
Its value is 40%.

What about the “% activity, solo application” value ([4]; 250 gai/ha, 20 DAT, Table X5) of the same molecule?
Its value is 10%.

And the “% activity” value [4, 9]?
Its value is 40%.

What about the “% activity” value [4, 7] of the same molecule?
Its value is 30%.

What about the “% activity” value ([4]; Ex. 5 solo, 125 gai/ha, 21 DAT) of the same molecule?
Its value is 30%.

And the “% activity” value ([4]; Ex. 5 solo, 250 gai/ha, 21 DAT)?
Its value is 60%.

What about the “% activity” value ([4]; 20 DAT, solo Ex. 5 125 gai/ha) of the same molecule?
Its value is 40%.

And the “% activity” value ([4]; 20 DAT, solo Ex. 5 250 gai/ha)?
The value was 30%.

What about the “% activity” value ([4]; 20 DAT, solo Ex. 5 250 gai/ha (Table X66)) of the same molecule?
The value was 30%.

And the “% activity” value ([4]; 21 DAT, solo Ex. 5 125 gai/ha)?
Its value is 30%.

What about the “% activity” value ([4]; solo Ex. 5 62.5 gai/ha, 20 DAT) of the same molecule?
Its value is 10% and 0%.

What about the “% activity” value ([4]; solo Ex. 5 250 gai/ha, 21 DAT) of the same molecule?
The value was 30%.

And the “% activity” value ([4]; solo, 62.5 gai/ha, 20 DAT)?
Its value is 20%.

And the “% activity” value ([4]; solo, 125 gai/ha, 20 DAT)?
The value was 40% and 20%.

And the “% activity” value ([4]; solo, 250 gai/ha, 20 DAT)?
Its value is 40% and 45%.

And the “% activity, solo application” value ([5]; 62.5 gai/ha, 20 DAT, Table X3)?
Its value is 20%.

And the “% activity, solo application” value ([5]; 125 gai/ha, 20 DAT, Table X3)?
Its value is 75%.

And the “% activity, solo application” value ([5]; 125 gai/ha, 20 DAT, Table X4)?
The value was 5%.

And the “% activity, solo application” value ([5]; 125 gai/ha, 20 DAT, Table X5)?
The value was 30%.

And the “% activity” value [5, 9]?
The value was 25%.

What about the “% activity” value [5, 7] of the same molecule?
Its value is 60%.

And the “% activity” value ([5]; 20 DAT, solo Ex. 5 62.5 gai/ha)?
Its value is 70%.

And the “% activity” value ([5]; 20 DAT, solo Ex. 5 125 gai/ha)?
The value was 65%.

And the “% activity” value ([5]; 20 DAT, solo Ex. 5 125 gai/ha (Table X66))?
The value was 65%.

And the “% activity” value ([5]; 21 DAT, solo Ex. 5 125 gai/ha)?
The value was 60%.

And the “% activity” value ([5]; 21 DAT, solo Ex. 5 250 gai/ha)?
Its value is 80%.

And the “% activity” value ([5]; solo Ex. 5 62.5 gai/ha, 20 DAT)?
The value was 0%.

And the “% activity” value ([5]; solo Ex. 5 62.5 gai/ha, 21 DAT)?
The value was 0%.

What about the “% activity” value ([5]; solo Ex. 5 125 gai/ha, 21 DAT) of the same molecule?
The value was 10%.

What about the “% activity” value ([5]; solo Ex. 5 250 gai/ha, 20 DAT) of the same molecule?
Its value is 65%.

And the “% activity” value ([5]; solo Ex. 5 250 gai/ha, 21 DAT)?
The value was 65%.

And the “% activity” value ([5]; solo, 250 gai/ha, 20 DAT)?
The value was 70% and 75%.

And the “% activity” value ([6]; solo Ex. 5 62.5 gai/ha, 20 DAT)?
Its value is 80%.

What about the “% activity” value ([6]; solo Ex. 5 125 gai/ha, 20 DAT) of the same molecule?
Its value is 80%.

What about the “% activity” value ([6]; solo Ex. 5 125 gai/ha, 21 DAT) of the same molecule?
Its value is 85%.

And the “% activity” value ([6]; solo Ex. 5 250 gai/ha, 21 DAT)?
The value was 85%.

What about the “% activity” value ([6]; Table X8, 20 DAT, solo Ex. 5 125 gai/ha) of the same molecule?
Its value is 90%.

What about the “% activity” value [6, 8] of the same molecule?
Its value is 90%.

And the “% activity” value ([6]; solo, 62.5 gai/ha, 20 DAT)?
Its value is 85%.

And the “% activity” value ([6]; solo, 125 gai/ha, 20 DAT)?
Its value is 85%.

And the “% activity” value ([6]; solo, 250 gai/ha, 20 DAT)?
Its value is 85%.
